Test results: patent US9637487B2, “Purinone compounds as kinase inhibitors” (Pharmacyclics LLC, priority 2013, dated 2017)

Biological target: Btk (Homo sapiens (Human), UniProt Q06187)
Test: Btk in vitro inhibitory activity (one of Method A TR-FRET, Method B mobility shift, Method C radiometric filter binding)
Format: biochemical
Conditions: determined using one of the methods outlined in Example 36a, 36b and 36c
Method: Btk kinase activity is determined using a time-resolved fluorescence resonance energy transfer (TR-FRET) methodology. Measurements are performed in a reaction volume of 50 μL using 96-well assay plates. […] The reaction is quenched by the addition of 1.2 equivalents of EDTA (relative to divalent cation) in 25 μL of 1× Lance buffer (Perkin-Elmer). […] The TR-FRET signal is measured on a multimode plate reader with an excitation wavelength (λEx) of 330 nm and detection wavelengths (λEm) of 615 and 665 nm. Activity is determined by the ratio of the fluorescence at 665 nm to that at 615 nm. For each compound, enzyme activity is measured at various concentrations of compound. Negative control reactions are performed in the absence of inhibitor in replicates of six, and two no-enzyme controls are used to determine baseline fluorescence levels Inhibition constants, Ki(app), ware obtained using the program BatchKi (Kuzmic et al. (2000), Anal. Biochem. 286:45-50). IC50s are obtained according to the equation: IC50={Ki(app)/(1+[ATP]/Km^ATP)}+[E]total/2;
Kinase activity is measured in vitro using electrophoretic mobility shift assay. The kinase reactions are assembled in a total volume of 25 μL in 384 well plates. […] The reaction is incubated for one hour and is quenched by the addition of 45 μL of termination buffer (100 mM HEPES, pH7.5, 0.01% Triton X-100, 30 mM EDTA). The terminated reactions are analyzed using 12 channel LabChip® 3000 microfluidic detection instrument (Caliper Life Sciences). […] Change in the relative fluorescence intensity of the substrate and product peaks is the parameter measured, reflecting enzyme activity. In the presence of an inhibitor, the ratio between product and substrate is altered: the signal of the product decreases, while the signal of the substrate increases.
Activity in each sample is determined as the product to sum ratio (PSR):P/(S+P), where P is the peak height of the product peptide and S is the peak height of the substrate peptide. For each compound, enzyme activity is measured at various concentrations (12 concentrations of compound spaced by 3× dilution intervals). Negative control samples (0%-inhibition in the absence of inhibitor) and positive control samples (100%-inhibition, in the presence of 20 mM EDTA) are assembled in replicates of four and are used to calculate %-inhibition values for each inhibitor at each concentration. Percent inhibition (Pinh) is determined using following equation: Pinh=(PSR0%−PSRinh)/(PSR0%−PSR100%)*100, where PSRinh is the product sum ratio in the presence of inhibitor, PSR0% is the average product sum ration in the absence of inhibitor and PSR100% is the average product sum ratio in 100%-inhibition control samples;
The IC50 values of inhibitors are determined by 4 parameter sigmoidal dose-response model fitting of the inhibition curves (Pinh versus inhibitor concentration) using XLfit 4 software.
IC50 values and curve fits were obtained using Prism (GraphPad Software).
The degree of Btk inhibition was determined using one of the methods outlined in Example 36a, 36b and 36c.

Btk, sequence (Q06187 whole entry): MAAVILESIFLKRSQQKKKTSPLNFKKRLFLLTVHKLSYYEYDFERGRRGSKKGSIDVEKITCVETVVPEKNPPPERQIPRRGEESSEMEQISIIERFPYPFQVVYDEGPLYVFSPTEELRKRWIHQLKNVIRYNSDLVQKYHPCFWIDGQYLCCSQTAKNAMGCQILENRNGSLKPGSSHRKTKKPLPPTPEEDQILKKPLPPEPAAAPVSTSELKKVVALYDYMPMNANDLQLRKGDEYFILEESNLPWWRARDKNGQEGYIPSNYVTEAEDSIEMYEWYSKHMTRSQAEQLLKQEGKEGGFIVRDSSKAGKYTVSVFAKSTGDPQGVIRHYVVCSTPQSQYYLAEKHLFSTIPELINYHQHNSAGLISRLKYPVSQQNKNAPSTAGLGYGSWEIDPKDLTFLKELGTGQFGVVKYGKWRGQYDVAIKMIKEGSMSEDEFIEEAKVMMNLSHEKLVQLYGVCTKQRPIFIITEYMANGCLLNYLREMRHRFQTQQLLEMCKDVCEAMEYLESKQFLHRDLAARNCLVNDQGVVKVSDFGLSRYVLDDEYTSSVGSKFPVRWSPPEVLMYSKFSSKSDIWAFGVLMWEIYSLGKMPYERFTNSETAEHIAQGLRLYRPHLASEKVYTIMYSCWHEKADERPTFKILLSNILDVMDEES

| Structure (SMILES) | IC50 [µM] |
| --- | --- |
| Cc1nnc(NC(=O)c2ccc(-n3c(=O)n(-c4cccc(N(C)C(=O)/C=C/CN(C)C)c4)c4ncnc(N)c43)cc2)s1 [Compound 24, (E)-4-(6-amino-9-(3-(4-(dimethylamino)-N-methylbut-2-enamido)phenyl)-8-oxo-8,9-dihydro-7H-purin-7-yl)-N-(5-methyl-1,3,4-thiadiazol-2-yl)benzamide] | 1 to 10 |
| Cc1cc(NC(=O)c2ccc(-n3c(=O)n(-c4cccc(N(C)C(=O)/C=C/CN(C)C)c4)c4ncnc(N)c43)cc2)ncc1F [Compound 16, (E)-4-(6-amino-9-(3-(4-(dimethylamino)-N-methylbut-2-enamido)phenyl)-8-oxo-8,9-dihydro-7H-purin-7-yl)-N-(5-fluoro-4-methylpyridin-2-yl)benzamide] | < 0.1 |
| CN(C)C/C=C/C(=O)N(C)c1cccc(-n2c(=O)n(-c3ccc(C(=O)Nc4cc(C(F)(F)F)ccn4)cc3)c3c(N)ncnc32)c1 [Compound 10, (E)-4-(6-amino-9-(3-(4-(dimethylamino)-N-methylbut-2-enamido)phenyl)-8-oxo-8,9-dihydro-7H-purin-7-yl)-N-(4-(trifluoromethyl)pyridin-2-yl)benzamide] | < 0.1 |
| CN(C)C/C=C/C(=O)N(C)c1cccc(-n2c(=O)n(-c3ccc(C(=O)Nc4ccc(Cl)cn4)cc3)c3c(N)ncnc32)c1 [Compound 17, (E)-4-(6-amino-9-(3-(4-(dimethylamino)-N-methylbut-2-enamido)phenyl)-8-oxo-8,9-dihydro-7H-purin-7-yl)-N-(5-chloropyridin-2-yl)benzamide] | < 0.1 |
| Cc1ccnc(NC(=O)c2ccc(-n3c(=O)n(-c4cccc(N(C)C(=O)/C=C/CN(C)C)c4)c4ncnc(N)c43)cc2)c1 [Compound 7, (E)-4-(6-amino-9-(3-(4-(dimethylamino)-N-methylbut-2-enamido)phenyl)-8-oxo-8,9-dihydro-7H-purin-7-yl)-N-(4-methylpyridin-2-yl)benzamide] | < 0.1 |
| Cc1cnc(NC(=O)c2ccc(-n3c(=O)n(-c4cccc(N(C)C(=O)/C=C/CN(C)C)c4)c4ncnc(N)c43)cc2)s1 [Compound 19, (E)-4-(6-amino-9-(3-(4-(dimethylamino)-N-methylbut-2-enamido)phenyl)-8-oxo-8,9-dihydro-7H-purin-7-yl)-N-(5-methylthiazol-2-yl)benzamide] | < 0.1 |
| CN(C)C/C=C/C(=O)N(C)c1cccc(-n2c(=O)n(-c3ccc(C(=O)c4ccccc4)cc3)c3c(N)ncnc32)c1 [Compound 26, (E)-N-(3-(6-amino-7-(4-benzoylphenyl)-8-oxo-7H-purin-9(8H)-yl)phenyl)-4-(dimethylamino)-N-methylbut-2-enamide] | < 0.1 |
| CCCc1ccnc(NC(=O)c2ccc(-n3c(=O)n(-c4cccc(N(C)C(=O)/C=C/CN(C)C)c4)c4ncnc(N)c43)cc2)c1 [Compound 9, (E)-4-(6-amino-9-(3-(4-(dimethylamino)-N-methylbut-2-enamido)phenyl)-8-oxo-8,9-dihydro-7H-purin-7-yl)-N-(4-propylpyridin-2-yl)benzamide] | < 0.1 |
| CN(C(=O)/C=C/CN(C)C1CC1)c1cccc(-n2c(=O)n(-c3ccc(C(=O)c4ccccc4)cc3)c3c(N)ncnc32)c1 [Compound 27, (E)-N-(3-(6-amino-7-(4-benzoylphenyl)-8-oxo-7H-purin-9(8H)-yl)phenyl)-4-(cyclopropyl(methyl)amino)-N-methylbut-2-enamide] | < 0.1 |
| C=CC(=O)N(C)c1cccc(-n2c(=O)n(-c3ccc(C(=O)Nc4ccccn4)cc3)c3c(N)ncnc32)c1 [Compound 29, 4-(6-amino-9-(3-(N-methylacrylamido)phenyl)-8-oxo-8,9-dihydro-7H-purin-7-yl)-N-(pyridin-2-yl)benzamide] | < 0.1 |

More lines, now with the values ahead:

| IC50 [µM] | Structure (SMILES) |
| --- | --- |
| < 0.1 | CN(C)C/C=C/C(=O)N(C)c1cccc(-n2c(=O)n(-c3ccc(C(=O)Nc4nc5ccccc5s4)cc3)c3c(N)ncnc32)c1 [Compound 23, (E)-4-(6-amino-9-(3-(4-(dimethylamino)-N-methylbut-2-enamido)phenyl)-8-oxo-8,9-dihydro-7H-purin-7-yl)-N-(benzo[d]thiazol-2-yl)benzamide] |
| < 0.1 | CN(C)C/C=C/C(=O)N(C)c1cccc(-n2c(=O)n(-c3ccc(C(=O)Nc4nccs4)cc3)c3c(N)ncnc32)c1 [Compound 18, (E)-4-(6-amino-9-(3-(4-(dimethylamino)-N-methylbut-2-enamido)phenyl)-8-oxo-8,9-dihydro-7H-purin-7-yl)-N-(thiazol-2-yl)benzamide] |
| < 0.1 | CN(C(=O)/C=C/CN1CCOCC1)c1cccc(-n2c(=O)n(-c3ccc(Oc4ccccc4)cc3)c3c(N)ncnc32)c1 [Compound 51, (E)-N-(3-(6-amino-8-oxo-7-(4-phenoxyphenyl)-7H-purin-9(8H)-yl)phenyl)-N-methyl-4-morpholinobut-2-enamide] |
| < 0.1 | CN(C(=O)/C=C/CN(C)C1CC1)c1cccc(-n2c(=O)n(-c3ccc(Oc4ccccc4)nc3)c3c(N)ncnc32)c1 [Compound 49, (E)-N-(3-(6-amino-8-oxo-7-(6-phenoxypyridin-3-yl)-7H-purin-9(8H)-yl)phenyl)-4-(cyclopropyl(methyl)amino)-N-methylbut-2-enamide] |
| 0.1 to 1 | Cc1cc(NC(=O)c2ccc(-n3c(=O)n(-c4cccc(N(C)C(=O)/C=C/CN(C)C)c4)c4ncnc(N)c43)cc2)sn1 [Compound 25, (E)-4-(6-amino-9-(3-(4-(dimethylamino)-N-methylbut-2-enamido)phenyl)-8-oxo-8,9-dihydro-7H-purin-7-yl)-N-(3-methylisothiazol-5-yl)benzamide] |
| < 0.1 | CN(C)C/C=C/C(=O)N(C)c1cccc(-n2c(=O)n(-c3ccc(C(=O)Nc4nc5c(s4)CCCC5)cc3)c3c(N)ncnc32)c1 [Compound 22, (E)-4-(6-amino-9-(3-(4-(dimethylamino)-N-methylbut-2-enamido)phenyl)-8-oxo-8,9-dihydro-7H-purin-7-yl)-N-(4,5,6,7-tetrahydrobenzo[d]thiazol-2-yl)benzamide] |
| < 0.1 | CN(C(=O)/C=C/CN1CCCC1)c1cccc(-n2c(=O)n(-c3ccc(Oc4ccccc4)cc3)c3c(N)ncnc32)c1 [Compound 52, (E)-N-(3-(6-amino-8-oxo-7-(4-phenoxyphenyl)-7H-purin-9(8H)-yl)phenyl)-N-methyl-4-(pyrrolidin-1-yl)but-2-enamide] |
| < 0.1 | CN(C(=O)/C=C/CN(C)C1CC1)c1cccc(-n2c(=O)n(-c3ccc(Oc4ccccn4)cc3)c3c(N)ncnc32)c1 [Compound 63, (E)-N-(3-(6-amino-8-oxo-7-(4-(pyridin-2-yloxy)phenyl)-7H-purin-9(8H)-yl)phenyl)-4-(cyclopropyl(methyl)amino)-N-methylbut-2-enamide] |
| 0.1 to 1 | CN(C)C/C=C/C(=O)N(C)c1cccc(-n2c(=O)n(-c3ccc(C(=O)Nc4cncc(F)c4)cc3)c3c(N)ncnc32)c1 [Compound 15, (E)-4-(6-amino-9-(3-(4-(dimethylamino)-N-methylbut-2-enamido)phenyl)-8-oxo-8,9-dihydro-7H-purin-7-yl)-N-(5-fluoropyridin-3-yl)benzamide] |
| < 0.1 | CN(C)C/C=C/C(=O)N(C)c1cccc(-n2c(=O)n(-c3ccc(C(=O)Nc4ccc(F)cn4)cc3)c3c(N)ncnc32)c1 [Compound 14, (E)-4-(6-amino-9-(3-(4-(dimethylamino)-N-methylbut-2-enamido)phenyl)-8-oxo-8,9-dihydro-7H-purin-7-yl)-N-(5-fluoropyridin-2-yl)benzamide] |
| < 0.1 | CN(C)C/C=C/C(=O)N(C)c1cccc(-n2c(=O)n(-c3ccc(C(=O)Nc4cccc(-c5ncccn5)c4)cc3)c3c(N)ncnc32)c1 [Compound 12, (E)-4-(6-amino-9-(3-(4-(dimethylamino)-N-methylbut-2-enamido)phenyl)-8-oxo-8,9-dihydro-7H-purin-7-yl)-N-(3-(pyrimidin-2-yl)phenyl)benzamide] |
| 0.1 to 1 | CN(C)C/C=C/C(=O)N(C)c1cccc(-n2c(=O)n(-c3ccc(OC4CC4)cc3)c3c(N)ncnc32)c1 [Compound 28, (E)-N-(3-(6-amino-7-(4-cyclopropoxyphenyl)-8-oxo-7H-purin-9(8H)-yl)phenyl)-4-(dimethylamino)-N-methylbut-2-enamide] |
